Measurements from patent US8927544B2, “Benzofuran-2-sulfonamides derivatives as chemokine receptor modulators” (Allergan, Inc., priority 2012, dated 2015).
Read-outs that look alike come from different tables or passages of the source.

Molecular target: T1, CCR2 (Homo sapiens, UniProt P41597)
T1 construct: expressed in transfected cells
Test: compound-induced calcium activity on the FLIPR Tetra in HEK-Gqi5 cells stably expressing CCR2
Type: cell-based
Experimental: HEK-Gqi5 cells stably expressing CCR2 were cultured in DMEM high glucose, 10% FBS, 1% PSA, 400 μg/ml geneticin and 50 μg/ml hygromycin. Appropriate positive control chemokines (MCP-1, MIP1A or RANTES) was used as the positive control agonist for screening compound-induced calcium activity assayed on the FLIPR^Tetra. The drug plates were prepared in 384-well microplates using the EP3 and the MultiPROBE robotic liquid handling systems. Compounds were synthesized and tested for CCR2 activity.

[1] = HEK-Gqi5 cells stably expressing CCR2, calcium activity, FLIPR Tetra
[2] = HEK-Gqi5 cells stably expressing CCR2, calcium activity, FLIPR Tetra, read-out: CCR2 IC50

T1 sequence (P41597 whole entry, species assumed): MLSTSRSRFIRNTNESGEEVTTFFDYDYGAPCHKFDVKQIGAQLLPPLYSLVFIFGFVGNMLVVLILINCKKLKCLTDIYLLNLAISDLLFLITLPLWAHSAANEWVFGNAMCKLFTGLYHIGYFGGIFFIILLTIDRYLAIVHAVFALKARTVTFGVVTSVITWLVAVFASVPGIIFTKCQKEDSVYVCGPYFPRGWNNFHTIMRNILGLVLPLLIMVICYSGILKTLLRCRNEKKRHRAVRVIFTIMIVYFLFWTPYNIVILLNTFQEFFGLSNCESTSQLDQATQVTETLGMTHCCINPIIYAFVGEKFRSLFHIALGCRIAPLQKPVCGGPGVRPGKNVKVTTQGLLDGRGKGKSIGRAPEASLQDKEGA

Q: Which “CCR2 ANTAGONISM (%)” value [1] does the source give for Cc1ccc(Sc2ccccc2)c(NS(=O)(=O)c2cc3ccccc3o2)c1 [Compound 24, N-[5-Methyl-2-(phenylsulfanyl)phenyl]-1-benzofuran-2-sulfonamide] here?
A: Its value is 41%.

Q: Which results are given for N#Cc1ccc(Cl)cc1NS(=O)(=O)c1cc2ccccc2o1 [Compound 16, N-(5-Chloro-2-cyanophenyl)-1-benzofuran-2-sulfonamide]?
A: CCR2 ANTAGONISM (%) [1]: 102%; IC50 [2]: 409 nM

Q: For CCOc1ccc(Cl)cc1NS(=O)(=O)c1cc2ccccc2o1 [Compound 5, N-(5-Chloro-2-ethoxyphenyl)-1-benzofuran-2-sulfonamide], which “CCR2 ANTAGONISM (%)” value [1] is on record?
A: The value was 73%.

Q: What about the IC50 [2] of the same compound?
A: Its IC50 is 1660 nM.

Q: O=S(=O)(Nc1cc(Cl)ccc1OCc1ccccc1)c1cc2ccccc2o1 [Compound 20, N-[2-(Benzyloxy)-5-chlorophenyl]-1-benzofuran-2-sulfonamide] was tested. Which “CCR2 ANTAGONISM (%)” value [1] did it give?
A: Its value is 87%.

Q: What about the IC50 [2] of the same compound?
A: Its IC50 is 1630 nM.

Q: Which “CCR2 ANTAGONISM (%)” value [1] does the source give for O=C(O)c1ccccc1COc1ccc(Cl)cc1NS(=O)(=O)c1cc2ccccc2o1 [Compound 31, 2-({2-[(1-Benzofuran-2-ylsulfonyl)amino]-4-chlorophenoxy}methyl)benzoic Acid] here?
A: The value was 99%.

Q: What about the IC50 [2] of the same compound?
A: Its IC50 is 27 nM.

Q: With O=S(=O)(Nc1cc(F)ccc1Sc1ccccc1)c1cc2ccccc2o1 [Compound 27, N-[5-Fluoro-2-(phenylsulfanyl)phenyl]-1-benzofuran-2-sulfonamide] as the compound, how does the “CCR2 ANTAGONISM (%)” value [1] read?
A: Its value is 74%.

Q: With O=C(c1ccc(Cl)cc1NS(=O)(=O)c1cc2ccccc2o1)N1CCOCC1 [Compound 8, N-[5-Chloro-2-(morpholin-4-ylcarbonyl)phenyl]-1-benzofuran-2-sulfonamide] as the compound, how does the “CCR2 ANTAGONISM (%)” value [1] read?
A: Its value is 84%.

Q: And the IC50 [2]?
A: The IC50 was 569 nM.

Q: Which “CCR2 ANTAGONISM (%)” value [1] does the source give for COC(=O)c1ccccc1Oc1ccc(Cl)cc1NS(=O)(=O)c1cc2ccccc2o1 [Compound 10, Methyl 2-{2-[(1-benzofuran-2-ylsulfonyl)amino]-4-chlorophenoxy}benzoate] here?
A: The value was 98%.

Q: And the IC50 [2]?
A: Its IC50 is 1020 nM.

Q: What does the source list for O=S(=O)(Nc1cc(Cl)ccc1[S+]([O-])c1ccccc1)c1cc2ccccc2o1 (stereo not drawn) [Compound 14, N-[5-Chloro-2-(phenylsulfinyl)phenyl]-1-benzofuran-2-sulfonamide]?
A: CCR2 ANTAGONISM (%) [1]: 105%; IC50 [2]: 6 nM

Q: For COc1ccc(Cl)cc1NS(=O)(=O)c1cc2ccccc2o1 [Compound 1, N-(5-Chloro-2-methoxyphenyl)benzofuran-2-sulfonamide], which “CCR2 ANTAGONISM (%)” value [1] is on record?
A: The value was 97%.

Q: What about the IC50 [2] of the same compound?
A: Its IC50 is 512 nM.

Q: How did the “CCR2 ANTAGONISM (%)” value [1] turn out when O=S(=O)(Nc1cc(Cl)ccc1/C(Cc1ccccc1)=N\O)c1cc2ccccc2o1 [Compound 19, N-{5-Chloro-2-[(1Z)—N-hydroxy-2-phenylethanimidoyl]phenyl}-1-benzofuran-2-sulfonamide] was run?
A: Its value is 72%.

Q: Which “CCR2 ANTAGONISM (%)” value [1] does the source give for Cc1ncccc1Oc1ccc(Cl)cc1NS(=O)(=O)c1cc2ccccc2o1 [Compound 9, N-{5-Chloro-2-[(2-methylpyridin-3-yl)oxy]phenyl}-1-benzofuran-2-sulfonamide] here?
A: The value was 96%.

Q: What about the IC50 [2] of the same compound?
A: Its IC50 is 365 nM.

Q: How did the “CCR2 ANTAGONISM (%)” value [1] turn out when O=C(Nc1ccccc1)c1ccc(Cl)cc1NS(=O)(=O)c1cc2ccccc2o1 [Compound 15, 2-[(1-Benzofuran-2-ylsulfonyl)amino]-4-chloro-N-phenylbenzamide] was run?
A: Its value is 95%.

Q: And the IC50 [2]?
A: Its IC50 is 328 nM.

Q: Which “CCR2 ANTAGONISM (%)” value [1] does the source give for Cc1ccc([S+]([O-])c2ccccc2)c(NS(=O)(=O)c2cc3ccccc3o2)c1 (stereo not drawn) [Compound 25, N-[5-Methyl-2-(phenylsulfinyl)phenyl]-1-benzofuran-2-sulfonamide] here?
A: The value was 92%.

Q: What about the IC50 [2] of the same compound?
A: Its IC50 is 2880 nM.

Q: Which “CCR2 ANTAGONISM (%)” value [1] does the source give for O=S(=O)(Nc1cc(Cl)ccc1S(=O)(=O)c1ccccc1)c1cc2ccccc2o1 [Compound 13, N-[5-Chloro-2-(phenylsulfonyl)phenyl]-1-benzofuran-2-sulfonamide] here?
A: Its value is 78%.

Q: And the IC50 [2]?
A: The IC50 was 1970 nM.

Q: With C#Cc1ccc(Cl)cc1NS(=O)(=O)c1cc2ccccc2o1 [Compound 6, N-(5-Chloro-2-ethynylphenyl)-1-benzofuran-2-sulfonamide] as the compound, how does the “CCR2 ANTAGONISM (%)” value [1] read?
A: The value was 93%.

Q: And the IC50 [2]?
A: The IC50 was 117 nM.

Q: How did the “CCR2 ANTAGONISM (%)” value [1] turn out when O=S(=O)(Nc1cc(Cl)ccc1Sc1ccccc1)c1cc2ccccc2o1 [Compound 12, N-[5-Chloro-2-(phenylsulfanyl)phenyl]-1-benzofuran-2-sulfonamide] was run?
A: Its value is 90%.

Q: What about the IC50 [2] of the same compound?
A: The IC50 was 124 nM.

Q: How did the “CCR2 ANTAGONISM (%)” value [1] turn out when O=S(=O)(Nc1cc(F)ccc1[S+]([O-])c1ccccc1)c1cc2ccccc2o1 (stereo not drawn) [Compound 28, N-[5-Fluoro-2-(phenylsulfinyl)phenyl]-1-benzofuran-2-sulfonamide] was run?
A: Its value is 91%.

Q: What about the IC50 [2] of the same compound?
A: The IC50 was 317 nM.

Q: How did the “CCR2 ANTAGONISM (%)” value [1] turn out when O=C(O)c1ccccc1Oc1ccc(Cl)cc1NS(=O)(=O)c1cc2ccccc2o1 [Compound 11, 2-{2-[(1-Benzofuran-2-ylsulfonyl)amino]-4-chlorophenoxy}benzoic acid] was run?
A: The value was 97%.

Q: What about the IC50 [2] of the same compound?
A: Its IC50 is 60 nM.

Q: With CO/N=C(/Cc1ccccc1)c1ccc(Cl)cc1NS(=O)(=O)c1cc2ccccc2o1 [Compound 18, N-{5-Chloro-2-[(1Z)—N-methoxy-2-phenylethanimidoyl]phenyl}-1-benzofuran-2-sulfonamide] as the compound, how does the “CCR2 ANTAGONISM (%)” value [1] read?
A: The value was 76%.

Q: Cc1ccc(Cl)cc1NS(=O)(=O)c1cc2ccccc2o1 [Compound 2, N-(5-Chloro-2-methylphenyl)-1-benzofuran-2-sulfonamide] was tested. Which “CCR2 ANTAGONISM (%)” value [1] did it give?
A: The value was 84%.

Q: What about the IC50 [2] of the same compound?
A: The IC50 was 359 nM.

Q: What does the source list for O=C1CCN(C(=O)c2ccc(Cl)cc2NS(=O)(=O)c2cc3ccccc3o2)CC1 [Compound 7, N-{5-Chloro-2-[(4-oxopiperidin-1-yl)carbonyl]phenyl}-1-benzofuran-2-sulfonamide]?
A: IC50: 110 nM; CCR2 ANTAGONISM (%) [1]: 93%

Q: How did the “CCR2 ANTAGONISM (%)” value [1] turn out when O=C(Cc1ccccc1)c1ccc(Cl)cc1NS(=O)(=O)c1cc2ccccc2o1 [Compound 17, N-[5-Chloro-2-(phenylacetyl)phenyl]-1-benzofuran-2-sulfonamide] was run?
A: The value was 79%.

Q: And the IC50 [2]?
A: Its IC50 is 183 nM.

Q: Which “CCR2 ANTAGONISM (%)” value [1] does the source give for O=S(=O)(Nc1cc(F)ccc1S(=O)(=O)c1ccccc1)c1cc2ccccc2o1 [Compound 29, N-[5-Fluoro-2-(phenylsulfonyl)phenyl]-1-benzofuran-2-sulfonamide] here?
A: Its value is 82%.

Q: And the IC50 [2]?
A: Its IC50 is 2620 nM.

Q: For O=S(=O)(Nc1cc(Cl)ccc1C#Cc1ccccc1)c1cc2ccccc2o1 [Compound 21, N-[5-Chloro-2-(phenylethynyl)phenyl]-1-benzofuran-2-sulfonamide], which “CCR2 ANTAGONISM (%)” value [1] is on record?
A: Its value is 30%.

Q: O=S(=O)(Nc1cc(Cl)ccc1CCc1ccccc1)c1cc2ccccc2o1 [Compound 22, N-[5-Chloro-2-(2-phenylethyl)phenyl]-1-benzofuran-2-sulfonamide] was tested. Which “CCR2 ANTAGONISM (%)” value [1] did it give?
A: The value was 84%.

Q: How did the “CCR2 ANTAGONISM (%)” value [1] turn out when O=S(=O)(Nc1cc(Cl)ccc1OC(F)(F)F)c1cc2ccccc2o1 [Compound 3, N-[5-Chloro-2-(trifluoromethoxy)phenyl]-1-benzofuran-2-sulfonamide] was run?
A: Its value is 95%.

Q: And the IC50 [2]?
A: Its IC50 is 195 nM.

Q: With Cc1ccc(S(=O)(=O)c2ccccc2)c(NS(=O)(=O)c2cc3ccccc3o2)c1 [Compound 26, N-[5-Methyl-2-(phenylsulfonyl)phenyl]-1-benzofuran-2-sulfonamide] as the compound, how does the “CCR2 ANTAGONISM (%)” value [1] read?
A: The value was 38%.

Q: What does the source list for COC(=O)c1ccc(Cl)cc1NS(=O)(=O)c1cc2ccccc2o1 [Compound 4, Methyl 2-[(1-benzofuran-2-ylsulfonyl)amino]-4-chlorobenzoate]?
A: CCR2 ANTAGONISM (%) [1]: 95%; IC50 [2]: 1380 nM
